Blank lines part the entries; values can stand above or below the molecule they belong to.
Tests used:
RPMI 8402 = assay: Cytotoxicity against human RPMI 8402 cells assessed as cell growth inhibition measured after 4 days by MTT assay; assay type: functional, cell-based; conditions: RPMI 8402, 96 h
HCT-116 [1] = assay: Cytotoxicity against human HCT-116 cells assessed as cell growth inhibition measured after 4 days by MTT assay; assay type: functional, cell-based; conditions: HCT-116, 96 h
[2] = molecular target: T1, DNA topoisomerase 1 (Homo sapiens) (UniProt P11387); assay: Inhibition of human Top1 expressed in Escherichia coli assessed as enzyme-mediated DNA cleavage by measuring relative effective concentration incubated for 30 mins relative to topotecan
T1 sequence (whole entry): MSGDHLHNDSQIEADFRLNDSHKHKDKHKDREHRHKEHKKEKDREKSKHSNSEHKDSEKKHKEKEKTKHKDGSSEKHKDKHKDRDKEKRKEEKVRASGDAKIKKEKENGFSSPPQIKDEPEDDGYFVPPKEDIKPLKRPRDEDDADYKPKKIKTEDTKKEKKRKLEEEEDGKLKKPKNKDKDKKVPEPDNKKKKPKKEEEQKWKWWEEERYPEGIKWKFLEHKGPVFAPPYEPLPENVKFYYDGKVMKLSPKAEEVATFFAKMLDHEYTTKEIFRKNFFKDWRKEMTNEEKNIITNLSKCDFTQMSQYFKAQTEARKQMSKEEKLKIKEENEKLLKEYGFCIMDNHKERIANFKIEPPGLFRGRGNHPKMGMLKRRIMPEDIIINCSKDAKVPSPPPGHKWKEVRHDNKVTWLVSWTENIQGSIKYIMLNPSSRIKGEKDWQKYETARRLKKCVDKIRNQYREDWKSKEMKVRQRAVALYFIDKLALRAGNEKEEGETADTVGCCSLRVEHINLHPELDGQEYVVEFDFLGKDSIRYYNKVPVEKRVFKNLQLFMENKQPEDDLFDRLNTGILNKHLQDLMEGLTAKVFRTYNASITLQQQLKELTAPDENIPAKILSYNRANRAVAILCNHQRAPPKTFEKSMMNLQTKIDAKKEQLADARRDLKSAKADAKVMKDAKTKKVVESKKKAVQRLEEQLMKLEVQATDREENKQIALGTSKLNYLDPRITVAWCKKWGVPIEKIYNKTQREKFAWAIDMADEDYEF

P388 [3] = assay: Cytotoxicity against mouse P388 cells assessed as cell growth inhibition; assay type: functional, cell-based
CCRF-CEM = assay: Cytotoxicity against human CEM cells assessed as cell growth inhibition; assay type: functional, cell-based
[4] = Cytotoxicity against human U-937/CR cells assessed as cell growth inhibition incubated for 3 to 4 days by MTT assay; assay type: functional, cell-based
U-937 = assay: Cytotoxicity against human U-937 cells assessed as cell growth inhibition incubated for 3 to 4 days by MTT assay; assay type: functional, cell-based
P388 [5] = assay: Cytotoxicity against mouse P388 cells assessed as cell growth inhibition incubated for 3 to 4 days by MTT assay; assay type: functional, cell-based
P388CPT45 = assay: Cytotoxicity against mouse P388CPT45 cells assessed as cell growth inhibition incubated for 3 to 4 days by MTT assay; assay type: functional, cell-based
HCT-116 [6] = assay: Cytotoxicity against human HCT-116 cells assessed as cell growth inhibition incubated for 72 hrs by MTT assay; assay type: functional, cell-based; conditions: HCT-116, 72 h
K562 = assay: Cytotoxicity against human K562 cells assessed as cell growth inhibition incubated for 72 hrs by MTT assay; assay type: functional, cell-based; conditions: K562, 72 h
K5 = assay: Cytotoxicity against human camptothecin-resistant K5 cells assessed as cell growth inhibition measured after 4 days by MTT assay; assay type: functional, cell-based; conditions: K5, 96 h
HCT-116 [7] = assay: Cytotoxicity against human HCT-116 cells assessed as cell growth inhibition incubated for 3 days by SRB assay; assay type: functional, cell-based; conditions: HCT-116, 72 h
MCF7 = assay: Cytotoxicity against human MCF7 cells assessed as cell growth inhibition incubated for 3 days by SRB assay; assay type: functional, cell-based; conditions: MCF7, 72 h
[8] = molecular target: T1, DNA topoisomerase 1 (Homo sapiens); assay: Inhibition of full-length recombinant human Top1 expressed in baculovirus infected Sf9 insect cells at 5 uM incubated for 30 mins relative to control
[9] = molecular target: T1, DNA topoisomerase 1 (Homo sapiens); assay: Inhibition of Top1 in [3H]-Thymidine-labeled human MCF7 cells assessed as Top1-DNA complex formation at 30 uM incubated for 60 mins followed by addition of salmon sperm DNA and subsequent addition of KCl relative to control; assay type: cell-based

SMILES: COc1cc2c(=O)n(CCN(C)C)c3c4cc(N)ccc4ncc3c2cc1OC
- IC50 (RPMI 8402): 40 nM

SMILES: COc1cc2c(=O)n(CCN(C)C)c3c4ccc([N+](=O)[O-])cc4ncc3c2cc1OC
- IC50 (RPMI 8402): 75 nM

SMILES: COc1ccc2c(ccc3c4cc5c(cc4nnc23)OCO5)c1
- IC50 (RPMI 8402): 70 nM
- IC50 (HCT-116 [1]): 40 nM

- Ratio [2]: 0.1
SMILES: CN(C)CCn1c(=O)c2cc([N+](=O)[O-])ccc2c2cnc3cc4c(cc3c21)OCO4
- IC50 (RPMI 8402): 2 nM

SMILES: COc1cc(-c2c3c4cc(OC)c(O)cc4oc(=O)c3n3ccc4cc(O)c(OC)cc4c23)ccc1O [LAMELLARIN D]
- IC50 (P388 [3]): 136 nM
- IC50 (CCRF-CEM): 14 nM

SMILES: COc1cc2ccc3c4cc5c(cc4ncc3c2cc1OC)OCO5
- IC50 [4]: 50 nM
- IC50 (U-937): 40 nM
- IC50 (P388 [5]): 190 nM
- IC50 (P388CPT45): 180 nM

SMILES: O=c1c2ccccc2nc2n1Cc1c-2nc2ccccc2c1C(F)(F)F
- IC50 (HCT-116 [6]): 17000 nM
- IC50 (K562): 21000 nM

SMILES: COc1cc2c(=O)n(CCN(C)C)c3c4ccc(N)cc4ncc3c2cc1OC
- IC50 (RPMI 8402): 100 nM

SMILES: COc1cc2ncc3c4cc5c(cc4ccc3c2cc1OC)OCO5
- IC50 (RPMI 8402): 4500 nM
- IC50 (K5): 10800 nM

SMILES: CC[C@@]1(O)C(=O)Cc2c1cc1n(c2=O)Cc2c-1nc1cc3c(cc1c2C1CCC1)OCO3
- IC50 (HCT-116 [7]): 6 nM
- IC50 (MCF7): 3 nM

- inhibition [8]: 54%
SMILES: O=c1c2ccccc2nc2n1Cc1cc3c(Br)cccc3nc1-2

- inhibition [8]: 48%
SMILES: O=c1c2ccccc2nc2n1Cc1cc3c(Cl)cccc3nc1-2

- inhibition [8]: 18%
SMILES: O=c1c2ccccc2nc2n1Cc1cc3ccccc3nc1-2

SMILES: CN(C)CCn1c(=O)c2ccc([N+](=O)[O-])cc2c2cnc3cc4c(cc3c21)OCO4
- IC50 (RPMI 8402): 3 nM

SMILES: COc1cc2c(=O)n(CCN(C)C)c3c4cc([N+](=O)[O-])ccc4ncc3c2cc1OC
- IC50 (RPMI 8402): 18 nM

- inhibition [9]: 24.2%
SMILES: CN1c2ccccc2C(=O)N2CCc3c([nH]c4ccccc34)C21 (stereo not given)

Reference: ChEMBL document CHEMBL5113389, “Topoisomerase I inhibitors: Challenges, progress and the road ahead” (Eur J Med Chem, 2022)
